# Data reported in article PMC5666424, “Marine-Derived 2-Aminoimidazolone Alkaloids. Leucettamine B-Related Polyandrocarpamines Inhibit Mammalian and Protozoan DYRK & CLK Kinases” (Marine Drugs, 2017).
# pIC50: −log10 of the molar value. Like-named read-outs stand apart in the source and are kept apart here.
# Key:
# CDK1/cyclin B = test: Protein kinase assay; type: biochemical, starfish; settings: 15 μmol/L ATP
# CDK2/cyclin A = target: T1, CDK2/cyclin A (Homo sapiens, UniProt P24941); test: Protein kinase assay; type: biochemical
# T1 construct: made in house
# CDK5/p25 = target: T2, CDK5/p25 (Homo sapiens, UniProt Q00535); test: Protein kinase assay; type: biochemical
# T2 construct: made in house
# DYRK1B = DYRK1B (Homo sapiens, UniProt Q9Y463); test: Protein kinase assay; type: biochemical; settings: 15 μmol/L ATP
# DYRK3 = target: T3, DYRK3 (Homo sapiens, UniProt O43781); test: Protein kinase assay; type: biochemical
# T3 sequence (O43781 1-588): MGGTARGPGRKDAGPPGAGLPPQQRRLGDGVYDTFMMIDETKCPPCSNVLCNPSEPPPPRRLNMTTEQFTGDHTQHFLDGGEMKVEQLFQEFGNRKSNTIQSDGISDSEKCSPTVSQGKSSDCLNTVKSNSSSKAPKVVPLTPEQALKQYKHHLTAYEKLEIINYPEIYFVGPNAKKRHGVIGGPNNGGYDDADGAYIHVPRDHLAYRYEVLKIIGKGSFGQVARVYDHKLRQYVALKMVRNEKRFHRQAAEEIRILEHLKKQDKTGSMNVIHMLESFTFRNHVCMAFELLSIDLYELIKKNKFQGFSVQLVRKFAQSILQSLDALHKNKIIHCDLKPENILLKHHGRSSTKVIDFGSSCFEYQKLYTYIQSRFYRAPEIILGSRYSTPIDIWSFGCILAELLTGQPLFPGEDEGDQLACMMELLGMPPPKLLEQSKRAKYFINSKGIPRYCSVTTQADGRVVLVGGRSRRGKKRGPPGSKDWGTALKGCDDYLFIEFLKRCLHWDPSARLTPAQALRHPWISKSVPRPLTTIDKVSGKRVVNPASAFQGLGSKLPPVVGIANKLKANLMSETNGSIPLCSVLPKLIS
# GSK-3α/β = test: Protein kinase assay; type: biochemical, porcine; settings: 15 μmol/L ATP
# LmCK1 = LmCK1 (Leishmania major, UniProt Q9NHE1); test: Protein kinase assay; type: biochemical
# Protocol: CK1δ/ε (porcine brain, native) and LmCK1 (leishmania major, recombinant, expressed in E. coli as HIS fusion proteins) was assayed as described for CDK1 but in buffer C and using 25 μM CKS peptide ([…]pSAYSITA), a CK1-specific substrate.
# CDK9/cyclin T = CDK9/cyclin T (Homo sapiens, UniProt P50750); test: Protein kinase assay; settings: IC50 CDK9/cyclin T, 15 μmol/L ATP
# CLK1 = CLK1 (Mus musculus, UniProt P22518); test: Protein kinase assay; settings: IC50 CLK1, 15 μmol/L ATP
# CLK2 = CLK2 (Mus musculus, UniProt O35491); test: Protein kinase assay; settings: IC50 CLK2, 15 μmol/L ATP
# CLK4 = CLK4 (Mus musculus, UniProt O35493); test: Protein kinase assay; settings: IC50 CLK4, 15 μmol/L ATP
# [1] = tested on: 27 purified kinases (14 mammalian and 13 unicellular parasites); test: Battery of 27 purified kinases
# Description: We tested a selection of these 2-aminoimidazolones (Figure 1) on a battery of 27 purified kinases (14 mammalian and 13 unicellular parasites (Supplementary Table S3)).
# AKT1 = target: T4, AKT1 (Homo sapiens, UniProt P31749); test: KinomeScan; type: binding; settings: 1 μM
# T4 construct: purchased DiscoverX (KINOMEscan)
# Protocol: (§1) Assays were performed essentially as described previously. For most assays, kinase-tagged T7 phage strains were grown in parallel in 24-well blocks in an E. coli host derived from the BL21 strain. E. coli were grown to log-phase and infected with T7 phage from a frozen stock (multiplicity of infection ~0.1) and incubated with shaking at 32 °C until lysis (~90 min). The lysates were centrifuged (6000× g) and filtered (0.2 μm) to remove cell debris. The remaining kinases were produced in HEK-293 cells and subsequently tagged with DNA for qPCR detection. […] The liganded beads were blocked with excess biotin and washed with blocking buffer (SeaBlock (Pierce, ThermoFisher Scientific, Illkirch, France), 1% BSA, 0.05% Tween 20, 1 mM DTT) to remove unbound ligand and to reduce non-specific phage binding. […] An 11-point threefold serial dilution of each test compound was prepared in 100% DMSO at 100× final test concentration which and subsequently diluted to 1× in the assay. All reactions were performed in polystyrene 96-well plates in a final volume of 0.135 mL. […] The kinase concentration in the eluates was measured by qPCR.
# AKT3 = target: T5, AKT3 (Homo sapiens, UniProt Q9Y243); test: KinomeScan; type: binding; settings: 1 μM
# T5 construct: purchased DiscoverX (KINOMEscan)
# Protocol: as §1
# CSNK1E = target: T6, CSNK1E (Homo sapiens, UniProt P49674); test: KinomeScan; type: binding; settings: 1 μM
# T6 construct: purchased DiscoverX (KINOMEscan)
# Protocol: as §1
# CSNK2A2 = target: T7, CSNK2A2 (Homo sapiens, UniProt P19784); test: KinomeScan; type: binding; settings: 1 μM
# T7 construct: purchased DiscoverX (KINOMEscan)
# Protocol: as §1
# EGFR(L858R) = target: T8, EGFR(L858R) (Homo sapiens, UniProt P00533, L858R); test: KinomeScan; type: binding; settings: 1 μM
# T8 construct: purchased DiscoverX (KINOMEscan)
# Protocol: as §1
# EGFR(L861Q) = target: T9, EGFR(L861Q) (Homo sapiens, UniProt P00533, L861Q); test: KinomeScan; type: binding; settings: 1 μM
# T9 construct: purchased DiscoverX (KINOMEscan)
# Protocol: as §1
# EGFR(S752-I759del) = target: T10, EGFR(S752-I759del) (Homo sapiens, UniProt P00533, DEL752-759); test: KinomeScan; type: binding; settings: 1 μM
# T10 construct: purchased DiscoverX (KINOMEscan)
# Protocol: as §1
# ERBB3 = target: T11, ERBB3 (Homo sapiens, UniProt P21860); test: KinomeScan; type: binding; settings: 1 μM
# T11 construct: purchased DiscoverX (KINOMEscan)
# Protocol: as §1
# GRK4 = target: T12, GRK4 (Homo sapiens, UniProt P32298); test: KinomeScan; type: binding; settings: 1 μM
# T12 construct: purchased DiscoverX (KINOMEscan)
# Protocol: as §1
# MAPKAPK2 = target: T13, MAPKAPK2 (Homo sapiens, UniProt P49137); test: KinomeScan; type: binding; settings: 1 μM
# T13 construct: purchased DiscoverX (KINOMEscan)
# Protocol: as §1
# MET(M1250T) = target: T14, MET(M1250T) (Homo sapiens, UniProt P08581, M1250T); test: KinomeScan; type: binding; settings: 1 μM
# T14 construct: purchased DiscoverX (KINOMEscan)
# Protocol: as §1
# STK39 = target: T15, STK39 (Homo sapiens, UniProt Q9UEW8); test: KinomeScan; type: binding; settings: 1 μM
# T15 construct: purchased DiscoverX (KINOMEscan)
# Protocol: as §1
# ULK2 = target: T16, ULK2 (Homo sapiens, UniProt Q8IYT8); test: KinomeScan; type: binding; settings: 1 μM
# T16 construct: purchased DiscoverX (KINOMEscan)
# Protocol: as §1
# VRK2 = target: T17, VRK2 (Homo sapiens, UniProt Q86Y07); test: KinomeScan; type: binding; settings: 1 μM
# T17 construct: purchased DiscoverX (KINOMEscan)
# Protocol: as §1
# [2] = 15 μmol/L ATP, read-out: IC50 CDK2/cyclin A
# [3] = 15 μmol/L ATP, read-out: IC50 CDK5/p25
# [4] = 15 μmol/L ATP, read-out: IC50 DYRK3
# [5] = 15 μmol/L ATP, read-out: IC50 LmCK1
# CLK4, sequence (O35493 whole entry): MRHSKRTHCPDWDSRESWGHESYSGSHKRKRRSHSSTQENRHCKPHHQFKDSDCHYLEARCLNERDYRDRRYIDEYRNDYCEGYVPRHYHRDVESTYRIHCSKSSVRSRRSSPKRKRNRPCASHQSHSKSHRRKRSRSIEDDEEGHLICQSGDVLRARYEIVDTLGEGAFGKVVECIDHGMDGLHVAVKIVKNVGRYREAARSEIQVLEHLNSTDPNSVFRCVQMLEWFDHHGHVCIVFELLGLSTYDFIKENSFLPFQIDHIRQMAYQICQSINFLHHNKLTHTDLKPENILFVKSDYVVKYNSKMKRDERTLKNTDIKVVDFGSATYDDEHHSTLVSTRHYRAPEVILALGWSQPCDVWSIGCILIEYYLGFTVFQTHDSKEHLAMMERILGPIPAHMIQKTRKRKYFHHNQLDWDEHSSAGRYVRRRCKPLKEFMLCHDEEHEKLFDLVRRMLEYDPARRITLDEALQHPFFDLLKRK
# DYRK1B, sequence (Q9Y463 whole entry): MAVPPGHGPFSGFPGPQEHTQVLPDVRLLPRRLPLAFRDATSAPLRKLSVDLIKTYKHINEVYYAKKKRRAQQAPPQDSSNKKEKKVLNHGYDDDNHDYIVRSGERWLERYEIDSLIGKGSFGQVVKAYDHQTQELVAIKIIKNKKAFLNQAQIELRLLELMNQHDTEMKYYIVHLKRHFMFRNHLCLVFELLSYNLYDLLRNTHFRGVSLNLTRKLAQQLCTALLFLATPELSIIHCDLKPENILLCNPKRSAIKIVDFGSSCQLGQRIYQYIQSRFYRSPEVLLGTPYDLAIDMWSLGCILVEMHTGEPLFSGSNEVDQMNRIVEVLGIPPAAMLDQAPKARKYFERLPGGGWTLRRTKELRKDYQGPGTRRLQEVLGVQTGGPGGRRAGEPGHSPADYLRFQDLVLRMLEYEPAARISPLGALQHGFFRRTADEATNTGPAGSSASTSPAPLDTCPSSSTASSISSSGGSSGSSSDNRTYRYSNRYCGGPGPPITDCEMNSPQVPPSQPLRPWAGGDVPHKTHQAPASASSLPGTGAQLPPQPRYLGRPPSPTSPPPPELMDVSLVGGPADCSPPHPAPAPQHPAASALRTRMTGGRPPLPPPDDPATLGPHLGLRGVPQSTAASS
# T2 sequence (Q00535 whole entry): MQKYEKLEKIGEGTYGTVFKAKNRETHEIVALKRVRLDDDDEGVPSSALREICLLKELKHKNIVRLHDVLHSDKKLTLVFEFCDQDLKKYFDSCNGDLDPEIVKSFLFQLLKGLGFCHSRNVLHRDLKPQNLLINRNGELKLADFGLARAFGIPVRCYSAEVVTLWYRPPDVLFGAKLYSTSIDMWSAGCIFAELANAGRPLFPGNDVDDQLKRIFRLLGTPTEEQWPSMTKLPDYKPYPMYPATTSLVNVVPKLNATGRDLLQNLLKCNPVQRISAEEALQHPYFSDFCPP
# T2 sequence (Q15078 99-307 partner limits assumed): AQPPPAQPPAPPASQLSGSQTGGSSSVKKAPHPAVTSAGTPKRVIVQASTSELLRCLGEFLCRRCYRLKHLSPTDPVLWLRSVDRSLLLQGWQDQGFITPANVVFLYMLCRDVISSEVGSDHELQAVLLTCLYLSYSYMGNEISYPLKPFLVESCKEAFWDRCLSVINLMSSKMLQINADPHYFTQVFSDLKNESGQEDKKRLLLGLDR
# CDK9/cyclin T, sequence (P50750 whole entry): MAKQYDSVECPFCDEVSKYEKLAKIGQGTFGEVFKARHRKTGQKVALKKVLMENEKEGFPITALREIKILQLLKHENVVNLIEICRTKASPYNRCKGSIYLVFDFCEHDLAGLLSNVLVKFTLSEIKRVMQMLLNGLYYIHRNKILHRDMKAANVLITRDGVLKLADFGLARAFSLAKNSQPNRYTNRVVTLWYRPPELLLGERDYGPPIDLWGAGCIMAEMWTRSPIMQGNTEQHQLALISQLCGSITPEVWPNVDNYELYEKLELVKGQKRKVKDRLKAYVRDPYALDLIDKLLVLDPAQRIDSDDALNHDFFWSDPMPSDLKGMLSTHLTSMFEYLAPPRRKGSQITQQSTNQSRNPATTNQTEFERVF
# CDK9/cyclin T, sequence (O60563 whole entry partner): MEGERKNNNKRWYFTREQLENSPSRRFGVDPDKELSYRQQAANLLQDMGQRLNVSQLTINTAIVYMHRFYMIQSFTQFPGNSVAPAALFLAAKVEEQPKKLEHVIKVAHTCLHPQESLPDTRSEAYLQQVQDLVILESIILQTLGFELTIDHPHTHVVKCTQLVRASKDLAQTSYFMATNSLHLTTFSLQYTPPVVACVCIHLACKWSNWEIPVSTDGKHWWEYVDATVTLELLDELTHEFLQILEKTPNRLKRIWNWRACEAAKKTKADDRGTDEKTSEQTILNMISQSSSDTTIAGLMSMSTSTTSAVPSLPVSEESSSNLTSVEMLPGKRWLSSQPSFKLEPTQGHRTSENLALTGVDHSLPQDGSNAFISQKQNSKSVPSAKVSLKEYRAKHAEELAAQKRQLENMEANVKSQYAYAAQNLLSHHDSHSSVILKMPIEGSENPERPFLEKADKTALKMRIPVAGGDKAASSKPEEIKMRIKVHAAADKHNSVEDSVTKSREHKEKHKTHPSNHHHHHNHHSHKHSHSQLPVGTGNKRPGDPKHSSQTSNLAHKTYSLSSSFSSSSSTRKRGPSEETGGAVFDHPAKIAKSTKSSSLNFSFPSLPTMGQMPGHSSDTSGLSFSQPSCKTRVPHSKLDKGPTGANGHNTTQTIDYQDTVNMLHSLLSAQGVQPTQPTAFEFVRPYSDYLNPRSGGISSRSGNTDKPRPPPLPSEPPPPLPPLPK
# CLK1, sequence (P22518 whole entry): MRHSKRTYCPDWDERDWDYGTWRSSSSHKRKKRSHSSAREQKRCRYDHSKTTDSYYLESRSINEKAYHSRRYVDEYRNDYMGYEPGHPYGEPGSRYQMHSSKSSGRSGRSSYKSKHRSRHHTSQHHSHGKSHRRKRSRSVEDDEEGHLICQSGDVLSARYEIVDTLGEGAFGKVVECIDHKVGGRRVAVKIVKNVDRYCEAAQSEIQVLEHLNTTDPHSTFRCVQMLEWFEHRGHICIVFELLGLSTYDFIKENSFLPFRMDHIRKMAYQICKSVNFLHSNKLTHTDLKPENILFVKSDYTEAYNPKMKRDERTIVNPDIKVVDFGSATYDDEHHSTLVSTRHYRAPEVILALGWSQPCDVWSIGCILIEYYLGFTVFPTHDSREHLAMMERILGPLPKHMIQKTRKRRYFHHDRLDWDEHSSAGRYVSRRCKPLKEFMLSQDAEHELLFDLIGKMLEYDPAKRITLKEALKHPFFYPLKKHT
# LmCK1, sequence (Q9NHE1 entry or part of it): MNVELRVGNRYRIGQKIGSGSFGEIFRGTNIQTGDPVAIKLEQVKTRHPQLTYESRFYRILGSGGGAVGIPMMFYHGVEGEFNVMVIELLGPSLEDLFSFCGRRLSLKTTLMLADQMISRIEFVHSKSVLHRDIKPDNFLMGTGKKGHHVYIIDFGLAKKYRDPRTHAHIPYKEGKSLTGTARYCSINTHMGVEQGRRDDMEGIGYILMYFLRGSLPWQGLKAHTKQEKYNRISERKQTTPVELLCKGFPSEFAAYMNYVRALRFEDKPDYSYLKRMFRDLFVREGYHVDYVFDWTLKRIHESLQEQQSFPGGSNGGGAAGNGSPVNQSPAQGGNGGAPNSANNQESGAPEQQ
# CLK2, sequence (O35491 whole entry): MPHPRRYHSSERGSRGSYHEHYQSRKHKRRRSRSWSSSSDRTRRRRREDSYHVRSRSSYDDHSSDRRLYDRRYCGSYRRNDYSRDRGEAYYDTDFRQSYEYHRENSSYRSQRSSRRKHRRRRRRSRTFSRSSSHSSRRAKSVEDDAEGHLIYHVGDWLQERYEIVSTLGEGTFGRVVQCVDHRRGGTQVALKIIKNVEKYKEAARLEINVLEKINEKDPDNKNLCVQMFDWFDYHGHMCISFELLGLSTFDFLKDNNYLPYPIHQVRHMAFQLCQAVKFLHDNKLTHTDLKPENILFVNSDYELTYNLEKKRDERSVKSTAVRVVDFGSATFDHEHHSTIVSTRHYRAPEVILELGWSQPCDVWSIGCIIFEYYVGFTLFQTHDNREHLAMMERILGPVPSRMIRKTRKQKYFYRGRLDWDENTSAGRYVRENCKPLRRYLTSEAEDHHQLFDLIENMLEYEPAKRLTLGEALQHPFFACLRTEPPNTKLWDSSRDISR
# T13 sequence (P49137 whole entry): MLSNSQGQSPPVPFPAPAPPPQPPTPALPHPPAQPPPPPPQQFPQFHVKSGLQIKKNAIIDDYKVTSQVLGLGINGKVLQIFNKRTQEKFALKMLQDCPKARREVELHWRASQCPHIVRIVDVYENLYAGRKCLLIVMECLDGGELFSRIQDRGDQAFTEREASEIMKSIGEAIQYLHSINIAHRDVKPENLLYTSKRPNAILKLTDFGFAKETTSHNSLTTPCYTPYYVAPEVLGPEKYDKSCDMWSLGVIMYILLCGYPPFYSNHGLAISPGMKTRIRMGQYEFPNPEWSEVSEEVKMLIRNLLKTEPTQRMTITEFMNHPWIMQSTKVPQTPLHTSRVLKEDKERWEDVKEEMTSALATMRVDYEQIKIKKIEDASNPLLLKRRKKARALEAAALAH
# T10 sequence (P00533 with tags, fused parts or gaps DEL752-759 limits assumed): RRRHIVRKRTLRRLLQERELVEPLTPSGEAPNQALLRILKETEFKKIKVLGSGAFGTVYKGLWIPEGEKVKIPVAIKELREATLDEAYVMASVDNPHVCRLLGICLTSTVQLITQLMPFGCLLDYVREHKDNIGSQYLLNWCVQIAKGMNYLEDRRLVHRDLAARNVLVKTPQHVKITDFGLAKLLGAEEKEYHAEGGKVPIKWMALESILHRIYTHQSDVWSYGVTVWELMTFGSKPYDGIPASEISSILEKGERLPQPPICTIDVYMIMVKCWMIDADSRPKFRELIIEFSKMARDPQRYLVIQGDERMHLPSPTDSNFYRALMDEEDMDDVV
SMILES,pIC50 (CDK1/cyclin B),pIC50 (CDK2/cyclin A; [2]),pIC50 (CDK5/p25; [3]),pIC50 (DYRK1B),pIC50 (DYRK3; [4]),pIC50 (GSK-3α/β),pIC50 (LmCK1; [5]),pIC50 (CDK9/cyclin T),pIC50 (CLK1),pIC50 (CLK2),pIC50 (CLK4),activity in the kinase panel [1],other results
CN1C(=N)N(C)/C(=C\c2c[nH]c3ccccc23)C1=O [Aplysinopsine],< 5.00,< 5.00,< 5.00,< 5.00,< 5.00,< 5.00,< 5.00,< 5.00,< 5.00,< 5.00,< 5.00,essentially inactive,
CN1C(=N)N=C(Nc2nc(Cc3ccc4c(c3)OCO4)cn2C)C1=O [Clathridimine],< 5.00,< 5.00,< 5.00,5.25,5.21,< 5.00,< 5.00,< 5.00,5.14,5.21,5.46,essentially inactive,
CN1C(=O)N=C(Nc2nc(Cc3ccc4c(c3)OCO4)cn2C)C1=O [Clathridine],< 5.00,< 5.00,< 5.00,< 5.00,< 5.00,< 5.00,< 5.00,< 5.00,5.16,5.22,5.41,essentially inactive,
NC1=N/C(=C\CCNC(=O)c2cc(Br)c(Br)[nH]2)C(=O)N1 [Dispacamide],< 5.00,< 5.00,< 5.00,< 5.00,< 5.00,< 5.00,< 5.00,< 5.00,< 5.00,< 5.00,< 5.00,essentially inactive,
"NC1=NC(=O)/C(=C2\CCNC(=O)c3[nH]c(Br)cc32)N1 [Hymenialdisine, reference compound]",8.30,7.96,,8.49,8.31,8.49,8.60,7.96,8.52,8.39,8.54,,pIC50 (CDK5/p25): 8.21
CN1C(=O)/C(=C/c2ccc3c(c2)OCO3)N=C1N [Leucettamine B],< 5.00,,,,,5.14,,< 5.00,7.00,6.04,6.92,modestly active,"pIC50 (CDK2/cyclin A): < 5.00; pIC50 (DYRK3; IC50 DYRK3, 15 μmol/L ATP): 6.22; pIC50 (LmCK1): < 5.00"
COc1cc(/C=C2\N=C(N)NC2=O)ccc1O [Polyandrocarpamine A],,< 5.00,< 5.00,6.37,6.77,,< 5.00,6.03,6.00,5.92,6.49,,Score (AKT1): 100; Score (AKT3): 100; Score (CSNK1E): 87; Score (CSNK2A2): 26; Score (EGFR(L858R)): 93; Score (EGFR(L861Q)): 100; Score (EGFR(S752-I759del)): 100; Score (ERBB3): 100; Score (GRK4): 100; Score (MAPKAPK2): 100; Score (MET(M1250T)): 97; Score (STK39): 100; Score (ULK2): 100; Score (VRK2): 100
NC1=N/C(=C\c2ccc(O)c(O)c2)C(=O)N1 [Polyandrocarpamine B],< 5.00,< 5.00,< 5.00,5.92,6.06,< 5.00,< 5.00,5.28,,5.31,6.09,,
NC1=NC(=O)/C(=C2\CCNC(=O)c3[nH]cc(Br)c32)N1 [Spongiacidin B],7.51,7.17,7.38,8.24,7.36,7.36,7.60,6.70,7.66,8.14,8.44,,
